Reference: US6596534B1, “Utilization of osteocalcin promoter to deliver therapeutic genes to tumors” (priority 1997, dated 2003)
Entries after “also recorded” stand apart in the source; their conditions may differ.

Columns and labels:
[1] = test system: ROS 17/2.8 osteosarcoma lung metastases; test: Long term survival study of mice bearing osteosarcoma lung metastases; type: in vivo, nude mice; conditions: generalized Wilcoxon test, 0.005<p<0.01 for combination
Procedure: The end-points of the long term survival study are: animal death or sacrifice upon request by animal care takers because of excessive tumor burden causing animal distress, lethargy, ruffled fur or weight loss. The survival rate of the animals was analyzed by the Kaplan-Meier survival curve. The statistical significance of this study was analyzed with the generalized Wilcoxon test.^18
Twenty-six mice were inoculated with ROS 17/2.8 tumor cells as described above. Animals received either PBS, Ad-OC-TK alone, ACV alone, or Ad-OC-TK plus ACV and survivals were compared. […] Mean survival time was 27.1±2.9 days for the control animals and 36.6±5.8 days for the Ad-OC-TK plus ACV-treated animals (FIG. 6).
FIG. 6. Survival of animals receiving Ad-OC-TK/ACV treatment. Animals bearing osteosarcoma lung metastases were treated with PBS (6 animals), ACV (6 animals), Ad-OC-TK (6 animals), or Ad-OC-TK/ACV (8 animals) as described above. The survival study end-points were animal death or sacrifice per request by animal care personnel for distress, as evidenced by lethargy, ruffled fur or weight loss.

[2] = test system: ROS 17/2.8 osteosarcoma lung metastases; test: Treatment of osteosarcoma pulmonary metastasis by intravenous Ad-OC-TK; type: in vivo, nude mice
Procedure: Athymic Balb/c (nu/nu) mice at 5 to 6 weeks were purchased from Harlan Co. (Houston, Tex.). […] All mice were maintained in facilities approved by the American Association of Accreditation of Laboratory Animal Care, and all animal studies were conducted in accordance with the principles and procedures outlined in the NIH Guide for the Care and Use of Laboratory Animals.
The osteosarcoma pulmonary metastasis model was established as described above. Ad-OC-TK (5×10^8 PFU per 50 μl) was injected via tail vein twice, at day 7 and 14, after ROS 17/2.8 injection. Daily acyclovir intra peritoneal administration (40 mg/kg body weight) started at day 6 after ROS 17/2.8 tumor cell inoculation and continued for 15 days. All animals were sacrificed and examined on day 25. The lungs were removed, photographed, and weighed, and the metastatic deposits were observed under a low-powered (20×) stereo microscope. Histomorphologic observations were made in all specimens according to a standard procedure. Student's t-test was employed to analyze the statistical significance of differences among control and treatment groups.
We next tested the therapeutic efficacy of intravenous Ad-OC-TK gene therapy for the treatment of osteosarcoma lung metastases. Twenty mice bearing ROS 17/2.8 tumor lung metastases were treated with either PBS (control), Ad-OC-TK alone, ACV alone, or Ad-OC-TK plus ACV. Animals were sacrificed and analyzed on day 25 after ROS 17/2.8 inoculation. Tumor nodules on the lung surface were counted with stereo-optic magnification and the lung wet weights were measured, and all the lung specimens were subjected to histological analysis.

Nc1nc2c(ncn2COCCO)c(=O)[nH]1 [ACV, acyclovir]
survival compared with controls [1]: No obvious difference in survival
size of pulmonary metastases (histology) ([2]; day 25, compared with PBS-treated specimens): No statistical difference; also recorded: massive pulmonary metastatic tumor nodules
number of metastatic tumor nodules on the lung surface ([2]; day 25 after ROS 17/2.8 inoculation, Ad-OC-TK 5×10^8 PFU tail vein day 7 and 14, ACV 40 mg/kg i.p. daily for 15 days, p<0.0001 for combination vs PBS): No statistical difference; also recorded: no significant differences
lung wet weight ([2]; day 25 after ROS 17/2.8 inoculation, same regimen, p=0.0005 for combination vs PBS): no significant differences
